Results reported in ChEMBL document CHEMBL4507276 (2021).

Tests used:
[1] = biological target: T1, Aurora kinase C (Homo sapiens) (UniProt Q9UQB9); conditions: Compound concentration 1000.0 nM
T1 sequence (whole entry): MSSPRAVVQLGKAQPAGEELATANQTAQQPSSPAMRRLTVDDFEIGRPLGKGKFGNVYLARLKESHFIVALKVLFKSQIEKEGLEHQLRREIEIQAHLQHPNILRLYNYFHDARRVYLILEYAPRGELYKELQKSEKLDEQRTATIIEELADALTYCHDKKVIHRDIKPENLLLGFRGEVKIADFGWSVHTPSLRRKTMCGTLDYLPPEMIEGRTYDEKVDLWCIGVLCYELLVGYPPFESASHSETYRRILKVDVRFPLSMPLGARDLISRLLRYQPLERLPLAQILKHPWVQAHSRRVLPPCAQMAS

[2] = biological target: Serine/threonine-protein kinase B-raf (Homo sapiens) (UniProt P15056); conditions: Compound concentration 1000.0 nM
[3] = biological target: Calcium/calmodulin-dependent protein kinase type 1B (Homo sapiens) (UniProt Q6P2M8); conditions: Compound concentration 1000.0 nM
[4] = biological target: Cyclin-dependent kinase-like 2 (Homo sapiens) (UniProt Q92772); conditions: Compound concentration 1000.0 nM
[5] = biological target: Serine/threonine-protein kinase Chk2 (Homo sapiens) (UniProt O96017); conditions: Compound concentration 1000.0 nM
[6] = biological target: T2, Ephrin type-B receptor 2 (Homo sapiens) (UniProt P29323); conditions: Compound concentration 1000.0 nM
T2 sequence (whole entry): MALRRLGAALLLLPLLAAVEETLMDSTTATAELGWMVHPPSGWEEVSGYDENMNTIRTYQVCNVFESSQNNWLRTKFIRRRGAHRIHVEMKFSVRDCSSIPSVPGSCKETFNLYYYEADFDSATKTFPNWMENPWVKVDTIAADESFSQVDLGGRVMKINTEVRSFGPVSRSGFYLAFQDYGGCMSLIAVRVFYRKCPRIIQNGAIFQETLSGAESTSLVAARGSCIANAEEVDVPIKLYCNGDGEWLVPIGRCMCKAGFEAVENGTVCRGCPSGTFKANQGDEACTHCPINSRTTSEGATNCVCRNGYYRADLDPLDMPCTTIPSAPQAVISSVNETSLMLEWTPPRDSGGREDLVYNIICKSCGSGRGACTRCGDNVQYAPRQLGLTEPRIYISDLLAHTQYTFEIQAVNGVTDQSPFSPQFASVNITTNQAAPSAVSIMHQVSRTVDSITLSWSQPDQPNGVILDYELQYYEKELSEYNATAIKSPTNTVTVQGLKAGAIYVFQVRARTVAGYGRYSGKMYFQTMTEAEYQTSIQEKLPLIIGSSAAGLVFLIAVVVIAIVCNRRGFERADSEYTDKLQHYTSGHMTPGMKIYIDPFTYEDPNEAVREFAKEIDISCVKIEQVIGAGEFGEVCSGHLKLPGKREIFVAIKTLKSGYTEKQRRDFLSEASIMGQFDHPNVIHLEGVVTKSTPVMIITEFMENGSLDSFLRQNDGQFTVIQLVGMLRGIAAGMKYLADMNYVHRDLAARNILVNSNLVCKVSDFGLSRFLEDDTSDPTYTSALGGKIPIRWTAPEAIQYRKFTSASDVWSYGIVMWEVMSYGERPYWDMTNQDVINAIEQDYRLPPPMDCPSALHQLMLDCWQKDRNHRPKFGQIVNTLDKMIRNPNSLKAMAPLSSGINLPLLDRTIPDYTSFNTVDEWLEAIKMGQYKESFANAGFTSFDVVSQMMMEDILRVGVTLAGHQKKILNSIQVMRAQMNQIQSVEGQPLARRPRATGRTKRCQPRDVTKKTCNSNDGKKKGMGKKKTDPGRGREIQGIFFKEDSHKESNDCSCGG

[7] = biological target: Fibroblast growth factor receptor 3 (Homo sapiens) (UniProt P22607); conditions: Compound concentration 1000.0 nM
[8] = biological target: G protein-coupled receptor kinase 4 (Homo sapiens) (UniProt P32298); conditions: Compound concentration 1000.0 nM
[9] = biological target: Tyrosine-protein kinase Lck (Homo sapiens) (UniProt P06239); conditions: Compound concentration 1000.0 nM
[10] = biological target: Serine/threonine-protein kinase STK11 (Homo sapiens) (UniProt Q15831); conditions: Compound concentration 1000.0 nM
[11] = biological target: Serine/threonine-protein kinase 38 (Homo sapiens) (UniProt Q15208); conditions: Compound concentration 1000.0 nM
[12] = biological target: Platelet-derived growth factor receptor alpha (Homo sapiens) (UniProt P16234); conditions: Compound concentration 1000.0 nM
[13] = biological target: Dual serine/threonine and tyrosine protein kinase (Homo sapiens) (UniProt Q6XUX3); conditions: Compound concentration 1000.0 nM
[14] = biological target: Wee1-like protein kinase (Homo sapiens) (UniProt P30291); conditions: Compound concentration 1000.0 nM
[15] = biological target: Beta-3 adrenergic receptor (Homo sapiens) (UniProt P13945); conditions: Compound concentration 10.0 uM
Sequence of Beta-3 adrenergic receptor (Homo sapiens) (P13945 whole entry, looked up): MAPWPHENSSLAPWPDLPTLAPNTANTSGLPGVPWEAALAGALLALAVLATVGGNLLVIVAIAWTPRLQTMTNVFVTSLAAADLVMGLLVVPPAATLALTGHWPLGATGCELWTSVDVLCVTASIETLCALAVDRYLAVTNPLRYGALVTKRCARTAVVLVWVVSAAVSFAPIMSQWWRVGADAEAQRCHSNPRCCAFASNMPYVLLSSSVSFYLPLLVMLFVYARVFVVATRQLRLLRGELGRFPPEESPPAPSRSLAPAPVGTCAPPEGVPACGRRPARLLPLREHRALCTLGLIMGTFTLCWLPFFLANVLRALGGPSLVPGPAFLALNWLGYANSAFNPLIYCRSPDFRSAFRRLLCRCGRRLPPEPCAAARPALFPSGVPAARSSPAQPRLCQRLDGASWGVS

Sequence of Tyrosine-protein kinase Lck (Homo sapiens) (P06239 2-509 limits assumed): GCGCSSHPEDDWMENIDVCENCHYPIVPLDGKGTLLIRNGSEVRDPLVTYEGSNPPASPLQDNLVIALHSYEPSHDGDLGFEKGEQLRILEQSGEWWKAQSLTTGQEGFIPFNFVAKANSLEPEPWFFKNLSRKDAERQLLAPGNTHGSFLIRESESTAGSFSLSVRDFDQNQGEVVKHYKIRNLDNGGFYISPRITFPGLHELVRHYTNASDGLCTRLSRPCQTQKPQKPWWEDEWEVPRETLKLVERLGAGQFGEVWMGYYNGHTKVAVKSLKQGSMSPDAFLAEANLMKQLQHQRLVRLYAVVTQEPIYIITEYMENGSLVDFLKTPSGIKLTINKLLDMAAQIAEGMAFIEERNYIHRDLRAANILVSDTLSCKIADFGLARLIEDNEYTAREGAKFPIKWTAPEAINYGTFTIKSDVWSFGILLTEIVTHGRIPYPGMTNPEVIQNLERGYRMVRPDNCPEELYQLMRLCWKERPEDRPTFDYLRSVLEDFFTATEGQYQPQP
Sequence of G protein-coupled receptor kinase 4 (Homo sapiens) (P32298 whole entry, looked up): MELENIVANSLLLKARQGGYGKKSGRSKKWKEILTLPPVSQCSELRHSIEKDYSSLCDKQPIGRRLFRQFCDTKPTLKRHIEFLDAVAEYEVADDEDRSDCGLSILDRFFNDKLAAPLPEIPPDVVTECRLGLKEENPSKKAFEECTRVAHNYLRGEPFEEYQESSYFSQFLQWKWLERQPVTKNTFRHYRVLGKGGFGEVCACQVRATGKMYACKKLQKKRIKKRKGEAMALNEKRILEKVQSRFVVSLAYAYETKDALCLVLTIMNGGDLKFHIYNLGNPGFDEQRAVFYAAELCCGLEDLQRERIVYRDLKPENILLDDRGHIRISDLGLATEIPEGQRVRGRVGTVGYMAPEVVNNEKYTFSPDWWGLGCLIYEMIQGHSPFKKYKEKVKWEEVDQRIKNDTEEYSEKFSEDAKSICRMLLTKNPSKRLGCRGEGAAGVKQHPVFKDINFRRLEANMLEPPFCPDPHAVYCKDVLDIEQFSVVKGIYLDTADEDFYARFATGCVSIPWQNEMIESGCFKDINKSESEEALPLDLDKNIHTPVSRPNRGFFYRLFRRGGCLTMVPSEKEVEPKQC
Sequence of Serine/threonine-protein kinase Chk2 (Homo sapiens) (O96017 whole entry): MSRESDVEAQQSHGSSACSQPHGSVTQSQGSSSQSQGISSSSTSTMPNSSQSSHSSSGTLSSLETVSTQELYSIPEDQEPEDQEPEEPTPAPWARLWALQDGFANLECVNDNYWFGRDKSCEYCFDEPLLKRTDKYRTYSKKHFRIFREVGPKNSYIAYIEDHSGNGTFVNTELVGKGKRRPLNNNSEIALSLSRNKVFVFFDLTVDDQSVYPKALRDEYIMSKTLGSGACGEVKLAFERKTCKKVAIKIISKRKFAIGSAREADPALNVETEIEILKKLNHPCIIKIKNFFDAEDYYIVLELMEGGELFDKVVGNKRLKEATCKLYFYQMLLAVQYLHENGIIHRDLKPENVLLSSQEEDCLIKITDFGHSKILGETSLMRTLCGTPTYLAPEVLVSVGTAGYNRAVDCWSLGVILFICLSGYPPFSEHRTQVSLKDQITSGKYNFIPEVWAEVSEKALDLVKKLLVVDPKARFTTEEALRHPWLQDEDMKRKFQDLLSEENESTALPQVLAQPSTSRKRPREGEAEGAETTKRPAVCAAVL
Sequence of Serine/threonine-protein kinase STK11 (Homo sapiens) (Q15831 whole entry): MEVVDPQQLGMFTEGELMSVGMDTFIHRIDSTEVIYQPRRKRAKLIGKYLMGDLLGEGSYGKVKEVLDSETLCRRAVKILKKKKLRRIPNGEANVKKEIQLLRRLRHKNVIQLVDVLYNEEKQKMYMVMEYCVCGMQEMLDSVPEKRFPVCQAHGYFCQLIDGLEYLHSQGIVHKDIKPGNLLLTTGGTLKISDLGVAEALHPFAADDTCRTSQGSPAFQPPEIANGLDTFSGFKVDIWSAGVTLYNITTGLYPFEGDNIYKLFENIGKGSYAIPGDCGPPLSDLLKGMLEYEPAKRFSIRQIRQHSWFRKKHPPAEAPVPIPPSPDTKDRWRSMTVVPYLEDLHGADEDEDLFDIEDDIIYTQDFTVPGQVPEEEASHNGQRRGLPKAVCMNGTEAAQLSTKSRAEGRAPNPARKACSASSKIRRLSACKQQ
Sequence of Fibroblast growth factor receptor 3 (Homo sapiens) (P22607 23-806 limits assumed): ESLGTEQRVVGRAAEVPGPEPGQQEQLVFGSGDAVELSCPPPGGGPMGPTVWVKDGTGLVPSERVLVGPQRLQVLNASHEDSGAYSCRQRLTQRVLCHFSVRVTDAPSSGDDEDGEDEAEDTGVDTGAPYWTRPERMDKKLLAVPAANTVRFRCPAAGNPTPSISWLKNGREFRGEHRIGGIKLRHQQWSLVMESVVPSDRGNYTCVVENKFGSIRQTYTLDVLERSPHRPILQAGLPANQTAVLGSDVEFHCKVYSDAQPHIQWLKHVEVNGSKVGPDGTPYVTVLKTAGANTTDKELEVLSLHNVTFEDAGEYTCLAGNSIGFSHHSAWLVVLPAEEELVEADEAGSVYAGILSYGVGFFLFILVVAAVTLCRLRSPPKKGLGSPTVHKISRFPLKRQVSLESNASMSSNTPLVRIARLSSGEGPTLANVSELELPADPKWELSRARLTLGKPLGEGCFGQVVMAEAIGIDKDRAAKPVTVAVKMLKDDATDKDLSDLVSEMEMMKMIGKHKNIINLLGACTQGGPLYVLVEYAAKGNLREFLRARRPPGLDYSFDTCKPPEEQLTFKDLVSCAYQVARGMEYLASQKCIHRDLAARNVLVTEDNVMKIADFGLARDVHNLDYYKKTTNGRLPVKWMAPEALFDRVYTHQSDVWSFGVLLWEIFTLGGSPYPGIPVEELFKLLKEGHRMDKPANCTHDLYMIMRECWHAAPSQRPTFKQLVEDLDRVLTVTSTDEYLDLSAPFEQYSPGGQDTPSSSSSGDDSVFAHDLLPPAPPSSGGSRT
Sequence of Serine/threonine-protein kinase 38 (Homo sapiens) (Q15208 2-465 limits assumed): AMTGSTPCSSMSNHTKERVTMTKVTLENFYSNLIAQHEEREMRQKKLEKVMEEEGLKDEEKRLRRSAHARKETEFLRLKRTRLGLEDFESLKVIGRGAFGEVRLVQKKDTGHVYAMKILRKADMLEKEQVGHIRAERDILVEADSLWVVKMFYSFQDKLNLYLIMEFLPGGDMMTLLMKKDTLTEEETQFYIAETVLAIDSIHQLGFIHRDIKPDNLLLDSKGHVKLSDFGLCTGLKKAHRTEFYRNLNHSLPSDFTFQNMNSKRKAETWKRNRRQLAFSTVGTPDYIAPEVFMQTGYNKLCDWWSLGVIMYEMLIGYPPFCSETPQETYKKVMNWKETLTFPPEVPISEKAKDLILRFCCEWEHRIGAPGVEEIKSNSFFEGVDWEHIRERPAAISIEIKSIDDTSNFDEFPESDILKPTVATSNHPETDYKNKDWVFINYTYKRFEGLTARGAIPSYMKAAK
Sequence of Wee1-like protein kinase (Homo sapiens) (P30291 whole entry, looked up): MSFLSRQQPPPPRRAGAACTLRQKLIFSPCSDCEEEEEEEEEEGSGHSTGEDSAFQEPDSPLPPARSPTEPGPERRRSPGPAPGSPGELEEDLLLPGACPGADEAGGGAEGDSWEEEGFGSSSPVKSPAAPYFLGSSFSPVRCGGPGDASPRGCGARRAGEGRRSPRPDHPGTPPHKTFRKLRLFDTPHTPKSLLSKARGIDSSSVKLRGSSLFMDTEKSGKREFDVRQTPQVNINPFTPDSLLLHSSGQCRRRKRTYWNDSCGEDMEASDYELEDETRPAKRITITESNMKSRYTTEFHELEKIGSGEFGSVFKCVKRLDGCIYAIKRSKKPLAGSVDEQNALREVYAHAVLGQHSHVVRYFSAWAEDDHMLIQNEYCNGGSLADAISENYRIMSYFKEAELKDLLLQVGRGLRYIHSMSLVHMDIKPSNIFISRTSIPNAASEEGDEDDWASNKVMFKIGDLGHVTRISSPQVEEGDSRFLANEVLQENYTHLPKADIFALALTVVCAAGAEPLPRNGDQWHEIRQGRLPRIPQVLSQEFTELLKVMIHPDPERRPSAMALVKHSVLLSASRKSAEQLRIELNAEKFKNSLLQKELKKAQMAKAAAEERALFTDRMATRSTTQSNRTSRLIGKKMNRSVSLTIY
Sequence of Cyclin-dependent kinase-like 2 (Homo sapiens) (Q92772 whole entry): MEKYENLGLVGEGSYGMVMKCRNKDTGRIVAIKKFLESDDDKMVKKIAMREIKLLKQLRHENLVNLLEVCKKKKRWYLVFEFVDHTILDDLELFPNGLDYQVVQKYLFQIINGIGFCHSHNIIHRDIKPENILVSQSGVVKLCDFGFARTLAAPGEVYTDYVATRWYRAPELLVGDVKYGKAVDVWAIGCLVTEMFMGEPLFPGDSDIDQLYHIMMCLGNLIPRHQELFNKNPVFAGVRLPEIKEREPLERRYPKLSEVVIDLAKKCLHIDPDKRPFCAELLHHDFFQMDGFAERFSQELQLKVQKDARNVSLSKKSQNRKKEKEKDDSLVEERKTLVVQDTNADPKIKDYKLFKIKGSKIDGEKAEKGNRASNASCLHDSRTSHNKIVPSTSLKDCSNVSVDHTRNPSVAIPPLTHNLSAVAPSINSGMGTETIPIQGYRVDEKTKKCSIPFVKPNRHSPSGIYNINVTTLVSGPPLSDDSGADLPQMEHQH

CN(C)C(=O)Cn1cc(-c2nc(C3(c4ccc(-c5cnc(N)nc5)cc4)CC3)no2)cn1 [BI 0153]
inactive: residual activity [1] 100% | residual activity [2] 88% | residual activity [3] 77% | residual activity [4] 100% | residual activity [5] 100% | residual activity [6] 70% | residual activity [7] 100% | residual activity [8] 100% | residual activity [9] 83% | residual activity [10] 100% | residual activity [11] 84% | residual activity [12] 83% | residual activity [13] 94% | residual activity [14] 87% | inhibition [15] 3.06%

CN(C)C(=O)Cn1cc(-c2nc([C@@](C)(c3ccc(-c4cnc(N)nc4)cc3)C3CC3)no2)cn1 [BI 665915]
inactive: residual activity [1] 100% | residual activity [2] 82% | residual activity [3] 88% | residual activity [4] 100% | residual activity [5] 100% | residual activity [6] 87% | residual activity [7] 94% | residual activity [8] 86% | residual activity [9] 86% | residual activity [10] 77% | residual activity [11] 80% | residual activity [12] 100% | residual activity [13] 57% | residual activity [14] 94% | inhibition [15] 9.54%
